ChEMBL document CHEMBL1128029, “Synthesis and biological properties of a new series of anti-MRSA -lactams; 2-(thiazol-2-ylthio)carbapenems” (Bioorg Med Chem Lett, 1994)
≈ marks a conversion by molar mass, not a printed value.

How the values were obtained:
Escherichia coli = experiment: In vitro minimum inhibitory concentration against Escherichia coli NIHJ JC-2; format: functional
[1] = target: T1, Dipeptidase 1 (Sus scrofa) (UniProt P22412); experiment: Time of enzyme-catalyzed hydrolysis from 500 uM to 400 uM in the presence of purified renal DHP-1 of swine
T1 sequence (whole entry): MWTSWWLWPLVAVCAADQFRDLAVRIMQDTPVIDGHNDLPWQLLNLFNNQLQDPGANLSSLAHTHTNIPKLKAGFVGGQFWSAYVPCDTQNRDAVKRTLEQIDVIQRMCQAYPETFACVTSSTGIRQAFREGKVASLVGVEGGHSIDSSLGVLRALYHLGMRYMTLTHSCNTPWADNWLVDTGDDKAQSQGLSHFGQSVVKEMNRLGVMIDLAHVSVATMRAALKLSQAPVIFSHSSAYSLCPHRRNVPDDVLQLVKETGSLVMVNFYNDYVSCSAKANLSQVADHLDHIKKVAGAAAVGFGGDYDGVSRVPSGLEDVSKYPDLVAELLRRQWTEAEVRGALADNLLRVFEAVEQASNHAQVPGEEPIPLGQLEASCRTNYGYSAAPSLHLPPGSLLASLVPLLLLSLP

Staphylococcus aureus [2] = experiment: In vitro minimum inhibitory concentration against Staphylococcus aureus 209p; format: functional
Klebsiella pneumoniae = experiment: In vitro minimum inhibitory concentration against Klebsiella pneumoniae ATCC 10031; format: functional
Staphylococcus aureus [3] = experiment: In vitro minimum inhibitory concentration against Staphylococcus aureus SP-7928; format: functional
Albumin = Albumin (Homo sapiens, UniProt P02768); experiment: Binding affinity towards Human Serum albumin.
[4] = tested on: Staphylococcus epidermidis; experiment: In vitro minimum inhibitory concentration against Staphylococcus epidermidis IAM1296; format: functional
Staphylococcus aureus [5] = experiment: In vitro minimum inhibitory concentration against Staphylococcus aureus MS9408; format: functional

Albumin, sequence (P02768 whole entry): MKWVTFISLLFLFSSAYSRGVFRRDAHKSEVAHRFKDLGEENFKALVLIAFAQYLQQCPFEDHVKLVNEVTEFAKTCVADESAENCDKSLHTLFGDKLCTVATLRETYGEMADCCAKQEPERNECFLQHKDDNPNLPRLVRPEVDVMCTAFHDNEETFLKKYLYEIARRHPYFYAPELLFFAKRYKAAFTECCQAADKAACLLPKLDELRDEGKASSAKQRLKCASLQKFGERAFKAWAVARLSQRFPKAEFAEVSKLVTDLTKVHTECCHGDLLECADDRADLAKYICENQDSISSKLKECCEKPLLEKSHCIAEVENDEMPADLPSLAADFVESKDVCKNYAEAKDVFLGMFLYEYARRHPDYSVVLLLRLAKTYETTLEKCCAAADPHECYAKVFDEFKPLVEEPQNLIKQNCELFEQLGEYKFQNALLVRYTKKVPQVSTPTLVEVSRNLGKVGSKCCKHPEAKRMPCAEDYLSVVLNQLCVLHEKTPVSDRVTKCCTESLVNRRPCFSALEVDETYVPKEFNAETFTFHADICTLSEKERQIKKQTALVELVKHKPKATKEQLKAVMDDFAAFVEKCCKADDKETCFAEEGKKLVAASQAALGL

Row | SMILES | MIC (Escherichia coli) [µg/mL] | TIME [1] [h] | MIC (Staphylococcus aureus [2]) [µg/mL] | MIC (Klebsiella pneumoniae) [µg/mL] | MIC (Staphylococcus aureus [3]) [µg/mL] | Binding (Albumin) [%] | MIC [4] [µg/mL] | MIC (Staphylococcus aureus [5]) [µg/mL]
1 | C[C@@H](O)[C@H]1C(=O)N2C(C(=O)O)=C(Sc3nc(-c4ccncc4)cs3)[C@H](C)[C@H]12 | 6.25 (≈ 15.5 µM) | 0.267 | < 0.013 | 0.2 (≈ 0.496 µM) | 3.13 (≈ 7.76 µM) | 97 | 0.05 (≈ 0.124 µM) | 0.2 (≈ 0.496 µM)
2 | C[C@@H](O)[C@H]1C(=O)N2C(C(=O)O)=C(Sc3nc4ccccc4s3)[C@H](C)[C@H]12 | 25 (≈ 66.4 µM) |  | 0.025 (≈ 0.0664 µM) | 0.78 (≈ 2.07 µM) | 3.13 (≈ 8.31 µM) | > 94 | 0.2 (≈ 0.531 µM) | 0.78 (≈ 2.07 µM)
3 | C[C@@H](O)[C@H]1C(=O)N2C(C(=O)O)=C(Sc3nc(-c4cccnc4)cs3)[C@H](C)[C@H]12 | 6.25 (≈ 15.5 µM) | 0.0533 | < 0.013 | 0.05 (≈ 0.124 µM) | 1.56 (≈ 3.87 µM) | 97 | 0.025 (≈ 0.062 µM) | 0.2 (≈ 0.496 µM)
4 | C[C@@H](O)[C@H]1C(=O)N2C(C(=O)O)=C(SCCN=CN)C[C@H]12 [IMIPENEM ANHYDROUS] |  |  |  |  |  | < 10 |  | 
5 | C[C@@H](O)[C@H]1C(=O)N2C(C(=O)O)=C(Sc3nc(-c4ccccc4)cs3)[C@H](C)[C@H]12 | 6.25 (≈ 15.5 µM) | 0.163 | < 0.013 | 0.1 (≈ 0.248 µM) | 0.78 (≈ 1.94 µM) | > 94 | 0.025 (≈ 0.0621 µM) | 0.1 (≈ 0.248 µM)
6 | C[C@@H](O)[C@H]1C(=O)N2C(C(=O)O)=C(SCCNC=N)C[C@H]12 [IMIPENEM ANHYDROUS] | 0.1 (≈ 0.334 µM) | 0.2 | 0.013 (≈ 0.0434 µM) | 0.1 (≈ 0.334 µM) | 50 (≈ 167 µM) |  | 0.2 (≈ 0.668 µM) | 0.78 (≈ 2.61 µM)
7 | CCCc1csc(SC2=C(C(=O)O)N3C(=O)[C@H]([C@@H](C)O)[C@H]3[C@H]2C)n1 | 12.5 (≈ 33.9 µM) | 0.2 | 0.025 (≈ 0.0678 µM) | 0.2 (≈ 0.543 µM) | 3.13 (≈ 8.49 µM) | 96 | 0.05 (≈ 0.136 µM) | 0.39 (≈ 1.06 µM)
8 | C[C@@H](O)[C@H]1C(=O)N2C(C(=O)O)=C(Sc3nc(-c4ccc5ccncc5c4)cs3)[C@H](C)[C@H]12 | 12.5 (≈ 27.6 µM) | 0.162 | < 0.006 | 0.2 (≈ 0.441 µM) | 0.78 (≈ 1.72 µM) | 99 | 0.025 (≈ 0.0551 µM) | 0.1 (≈ 0.22 µM)
9 | C[C@@H](O)[C@H]1C(=O)N2C(C(=O)O)=C(Sc3nc(-c4ccc(Cl)cc4)cs3)[C@H](C)[C@H]12 | 12.5 (≈ 28.6 µM) | 0.165 | < 0.013 | 0.2 (≈ 0.458 µM) | 1.56 (≈ 3.57 µM) | > 94 | 0.025 (≈ 0.0572 µM) | 0.2 (≈ 0.458 µM)
10 | Cc1ccc(-c2csc(SC3=C(C(=O)O)N4C(=O)[C@H]([C@@H](C)O)[C@H]4[C@H]3C)n2)cc1 | 12.5 (≈ 30 µM) | 0.153 | < 0.006 | 0.39 (≈ 0.936 µM) | 3.13 (≈ 7.51 µM) | > 94 | 0.025 (≈ 0.06 µM) | 0.2 (≈ 0.48 µM)
11 | C[C@@H](O)[C@H]1C(=O)N2C(C(=O)O)=C(Sc3ncc(-c4ccccc4)s3)[C@H](C)[C@H]12 | 25 (≈ 62.1 µM) | 0.25 | < 0.006 | 0.39 (≈ 0.969 µM) | 12.5 (≈ 31.1 µM) | > 94 | 0.39 (≈ 0.969 µM) | 0.39 (≈ 0.969 µM)
12 | C[C@@H](O)[C@H]1C(=O)N2C(C(=O)O)=C(Sc3nc(-c4ccc(N)cc4)cs3)[C@H](C)[C@H]12 | 6.25 (≈ 15 µM) | 0.3 | < 0.013 | 0.05 (≈ 0.12 µM) | 1.56 (≈ 3.74 µM) | 98 | 0.025 (≈ 0.0599 µM) | 0.2 (≈ 0.479 µM)
13 | Cc1nc(SC2=C(C(=O)O)N3C(=O)[C@H]([C@@H](C)O)[C@H]3[C@H]2C)sc1C | 3.13 (≈ 8.83 µM) | 0.383 | 0.025 (≈ 0.0705 µM) | 0.2 (≈ 0.564 µM) | 6.25 (≈ 17.6 µM) | > 75 | 0.1 (≈ 0.282 µM) | 0.78 (≈ 2.2 µM)
14 | C[C@@H](O)[C@H]1C(=O)N2C(C(=O)O)=C(Sc3nc(-c4ccc(C(N)=O)cc4)cs3)[C@H](C)[C@H]12 | 6.25 (≈ 14 µM) | 0.2 | < 0.006 | 0.1 (≈ 0.224 µM) | 1.56 (≈ 3.5 µM) | 99 | 0.025 (≈ 0.0561 µM) | 0.2 (≈ 0.449 µM)

Now from value to compound:

Row | MIC (Escherichia coli) [µg/mL] | TIME [1] [h] | MIC (Staphylococcus aureus [2]) [µg/mL] | MIC (Klebsiella pneumoniae) [µg/mL] | MIC (Staphylococcus aureus [3]) [µg/mL] | Binding (Albumin) [%] | MIC [4] [µg/mL] | MIC (Staphylococcus aureus [5]) [µg/mL] | SMILES
15 | 0.2 (≈ 0.434 µM) | 0.35 | < 0.006 | 0.025 (≈ 0.0543 µM) | 1.56 (≈ 3.39 µM) | 15 | 0.05 (≈ 0.109 µM) | 0.2 (≈ 0.434 µM) | C[C@@H](O)[C@H]1C(=O)N2C(C(=O)[O-])=C(Sc3nc(-c4cc[n+](CC(N)=O)cc4)cs3)[C@H](C)[C@H]12
16 | 0.39 (≈ 0.934 µM) | 0.467 | < 0.013 | 0.05 (≈ 0.12 µM) | 1.56 (≈ 3.74 µM) | 7.8 | 0.025 (≈ 0.0599 µM) | 0.2 (≈ 0.479 µM) | C[C@@H](O)[C@H]1C(=O)N2C(C(=O)[O-])=C(Sc3nc(-c4ccc[n+](C)c4)cs3)[C@H](C)[C@H]12
17 | 0.39 (≈ 0.847 µM) | 0.283 | < 0.006 | 0.05 (≈ 0.109 µM) | 1.56 (≈ 3.39 µM) | 24 | 0.025 (≈ 0.0543 µM) | 0.2 (≈ 0.434 µM) | C[C@@H](O)[C@H]1C(=O)N2C(C(=O)[O-])=C(Sc3nc(-c4ccc[n+](CC(N)=O)c4)cs3)[C@H](C)[C@H]12
18 | 3.13 (≈ 6.69 µM) | 0.2 | < 0.006 | 0.05 (≈ 0.107 µM) | 0.78 (≈ 1.67 µM) | 59 | 0.013 (≈ 0.0278 µM) | 0.05 (≈ 0.107 µM) | C[C@@H](O)[C@H]1C(=O)N2C(C(=O)[O-])=C(Sc3nc(-c4ccc5cc[n+](C)cc5c4)cs3)[C@H](C)[C@H]12
19 | 3.13 (≈ 9.19 µM) | 0.217 | 0.025 (≈ 0.0734 µM) | 0.05 (≈ 0.147 µM) | 3.13 (≈ 9.19 µM) | 93 | 0.05 (≈ 0.147 µM) | 0.39 (≈ 1.15 µM) | Cc1csc(SC2=C(C(=O)O)N3C(=O)[C@H]([C@@H](C)O)[C@H]3[C@H]2C)n1
20 | 0.78 (≈ 2.39 µM) | 0.25 | 0.025 (≈ 0.0766 µM) | 0.05 (≈ 0.153 µM) | 12.5 (≈ 38.3 µM) | 69 | 0.1 (≈ 0.306 µM) | 0.78 (≈ 2.39 µM) | C[C@@H](O)[C@H]1C(=O)N2C(C(=O)O)=C(Sc3nccs3)[C@H](C)[C@H]12
21 | 0.39 (≈ 0.934 µM) | 0.383 | < 0.006 | 0.025 (≈ 0.0599 µM) | 1.56 (≈ 3.74 µM) | 12 | 0.025 (≈ 0.0599 µM) | 0.1 (≈ 0.24 µM) | C[C@@H](O)[C@H]1C(=O)N2C(C(=O)[O-])=C(Sc3nc(-c4cc[n+](C)cc4)cs3)[C@H](C)[C@H]12
22 | 1.56 (≈ 3.61 µM) |  | < 0.006 | 0.2 (≈ 0.463 µM) | 1.56 (≈ 3.61 µM) | 87 | 0.025 (≈ 0.0579 µM) | 0.2 (≈ 0.463 µM) | C[C@@H](O)[C@H]1C(=O)N2C(C(=O)O)=C(Sc3nc(-c4ccc(CN)cc4)cs3)[C@H](C)[C@H]12
